From the RepoRT retention time repository

Experiment: Agilent ZORBAX 300 SB-C18, 150 × 1 mm, 3.5 µm; A: water + 0.01% heptafluorobutyric acid; B: acetonitrile + 0.01% heptafluorobutyric acid; gradient (min/%B) 0/0 100/90
Conditions: stereoisomer not certain

CCOC(=O)C1(c2ccccc2)CCN(CCc2ccc(N)cc2)CC1 and Nc1ccc(C=C(C(=O)O)c2ccccc2)cc1 are within 1.5-fold of each other in LC retention time: 10.1 min for the first, 9.96 min for the second.

C=CCNC1(c2ccccc2)CCCCC1 and O=C(O)C1CCCN1Cc1ccccc1 (stereo unspecified) are within 1.5-fold of each other in LC retention time: 9.71 min for the first, 6.6 min for the second.

C#CC(C)(C)NC(=O)CCCCCN1C(=O)c2ccccc2C1=O and C#CC(C)(CC)NC(=O)Cc1ccccc1 (stereo unspecified) are the same in LC retention time: 12.2 min for the first, 12.2 min for the second.

c1ccc2c(NC3=NCCS3)cccc2c1 and Cc1ccc(NC2=NCCCS2)cc1 are within 1.5-fold of each other in LC retention time: 9.27 min for the first, 8.91 min for the second.

CN1CCC(OC(=O)Cc2ccccc2)CC1 and OCc1ccccc1CN1CCCC1 are within 1.5-fold of each other in LC retention time: 8.85 min for the first, 7.7 min for the second.

First: O=P(O)(O)CN(CP(=O)(O)O)CP(=O)(O)O
Second: O=C(O)CCC(=O)Nc1ccc(Cc2ccc(NC(=O)CCC(=O)O)cc2)cc1
The LC retention time of the first is 8.7-fold lower: 1.08 min for the first, 9.35 min for the second.

COc1cccc(C(=O)N(c2ccccc2)C2CC(C)N(C(C)=O)c3ccccc32)c1 (stereo unspecified) and CC(=NNc1ccccc1)C1=C(C)NC(=O)NC1c1ccccc1 (stereo unspecified) are within 1.5-fold of each other in LC retention time: 14.3 min for the first, 10.8 min for the second.

CC(=O)C(C)(C)N and C#CC(C)(C)NC(C)=O are within 1.5-fold of each other in LC retention time: 5.58 min for the first, 6.79 min for the second.

C=Cc1ccc(CN(C)C)cc1 and CN(C)C(=O)c1ccc(N)cc1 are within 1.5-fold of each other in LC retention time: 8.6 min for the first, 6.87 min for the second.

O=c1c(Cc2ccccc2)c(O)c2ccccc2n1Cc1ccccc1 and c1ccc(Cn2c3ccccc3n3c(Nc4ccccc4)nnc23)cc1 are within 1.5-fold of each other in LC retention time: 15.2 min for the first, 12.7 min for the second.

CCC(C)C1(CC)C(=O)NC(=O)NC1=O (stereo unspecified) and CCC1(CC)C(=O)NCC(C)C1=O (stereo unspecified) are within 1.5-fold of each other in LC retention time: 9.71 min for the first, 9.1 min for the second.

Going from O=C(O)c1cncc(C(=O)O)c1 to Cn1ccc(C(=O)O)cc1=O, the LC retention time rises from 3.03 min to 5.27 min (1.7-fold).

c1ccc(-c2cnc(-c3ccncc3)o2)cc1 and O=c1oc2ccccc2c2nc(-c3ccncc3)ncc12 are within 1.5-fold of each other in LC retention time: 11.9 min for the first, 12.2 min for the second.

Going from O=C(O)c1ccc2nccnc2c1 to C[n+]1cccc(C(=O)O)c1, the LC retention time falls from 7.67 min to 1.49 min (5.1-fold).

Cn1cnnc1-c1ccncc1 and O=c1c2ccccc2ncn1Cc1ccncc1 are within 1.5-fold of each other in LC retention time: 6.08 min for the first, 8.03 min for the second.

First: Cc1ccc(-c2csc(-c3cccnc3)n2)cc1C
Second: Cc1cccc(-c2nnc(-c3ccccc3C)o2)c1
The LC retention time of the first is 1.5-fold lower: 11.3 min for the first, 17.1 min for the second.

CNCc1cccn1C and Cc1ccccc1N are within 1.5-fold of each other in LC retention time: 7.09 min for the first, 7.59 min for the second.

CCn1c(C)c(C(C)=O)c(C(C)=O)c1C and CC(=O)Nc1cccc(C(C)=O)c1 are within 1.5-fold of each other in LC retention time: 9.56 min for the first, 8.35 min for the second.

Going from O=C1NCCN1C(=O)c1ccco1 to Nc1ccccc1C(=O)N1CCc2ccccc21, the LC retention time rises from 6.67 min to 12.4 min (1.9-fold).

First: CC(C)(C)c1ccc(C(=O)NC(CC(=O)O)c2ccc(C(C)(C)C)cc2)cc1 (stereo unspecified)
Second: CCC(=O)Nc1ccc(NCC(=O)Nc2ccc(C)cc2C)cc1
The LC retention time of the first is 1.5-fold higher: 16.7 min for the first, 11.1 min for the second.

COc1ccc(-c2ccccc2)cc1N and Cc1cc(-c2ccccc2)cc(-c2ccccc2)n1 are within 1.5-fold of each other in LC retention time: 11.6 min for the first, 12.1 min for the second.

COC(=O)CCC1CCCNC1 (stereo unspecified) and NC(=O)C1CCCOC1 (stereo unspecified) are within 1.5-fold of each other in LC retention time: 7.49 min for the first, 5.49 min for the second.

COCCCN1CCC(CN)C1 (stereo unspecified) and Cc1cc(=O)n(C)c(=O)n1CCCN1CCCC1 are within 1.5-fold of each other in LC retention time: 7.37 min for the first, 7.09 min for the second.

First: NC(=O)NCc1ccccn1
Second: NCCCc1ccccn1
The LC retention time of the first is 1.7-fold lower: 3.95 min for the first, 6.8 min for the second.

Compared with c1cc(C2=NC(c3ccncc3)C(c3ccncc3)N2)ccn1 (stereo unspecified), O=C(Nc1ccc(Cc2ccncc2)cc1)c1ccc2ccccc2n1 is 1.6-fold higher in LC retention time: 7.12 min for the first, 11.4 min for the second.

First: COC(C)C(N)=O (stereo unspecified)
Second: CC(=O)NC(C)c1ccc(O)cc1 (stereo unspecified)
The LC retention time of the first is 2.5-fold lower: 2.9 min for the first, 7.19 min for the second.

CSc1nnc(C)c(C)n1 and Cc1nccnc1C are within 1.5-fold of each other in LC retention time: 8.89 min for the first, 7.59 min for the second.

COc1ccc(N=Nc2c(N)n[nH]c2N)cc1 and COc1cc(C(=O)Nc2ccc(OCC(N)=O)cc2)cc(OC)c1OC are within 1.5-fold of each other in LC retention time: 9.61 min for the first, 9.54 min for the second.

Cc1ccc(Nc2cc(=O)oc3ccccc23)cc1C and Cc1cccc(-n2c(C)nc3ccccc3c2=O)c1 are within 1.5-fold of each other in LC retention time: 14.2 min for the first, 11.9 min for the second.

Compared with CCCNC(=O)c1ccccc1N, Cc1c(N)cccc1C(N)=O is 1.7-fold lower in LC retention time: 9.35 min for the first, 5.38 min for the second.

Going from Cn1ccc2cc(C=O)ccc21 to Cc1cccn2cc(-c3cccs3)cc12, the LC retention time rises from 11.3 min to 17 min (1.5-fold).

CCCCCCCN1C(=O)c2ccccc2C1(O)Cc1ccccc1 (stereo unspecified) and CCCCc1c(O)c2ccccc2n(-c2ccccc2)c1=O are within 1.5-fold of each other in LC retention time: 16.8 min for the first, 14.5 min for the second.

COc1ccc2cnn(-c3ccccc3)c(=O)c2c1OC and COc1ccc(NC(=O)Nc2ccc(OC)c(OC)c2)cc1OC are within 1.5-fold of each other in LC retention time: 11.5 min for the first, 10.2 min for the second.

CCN(CC)C(=O)c1ccc(O)c(OC)c1 and COc1c(C)cccc1C(=O)NN are within 1.5-fold of each other in LC retention time: 9.39 min for the first, 8.52 min for the second.

O=C(CN1C(=O)c2ccccc2C1=O)Nc1ccccc1C(=O)N1CCN(c2ccccc2)CC1 and C1=Nc2ccccc2C(c2cccc3ccccc23)C1c1ccc2ccccc2n1 (stereo unspecified) are within 1.5-fold of each other in LC retention time: 13.1 min for the first, 12.9 min for the second.

CCn1c(-c2ccccc2)nn(CN2CCCC2)c1=S and CCOC(=O)CN1C(=O)N(C)Cc2ccccc21 are within 1.5-fold of each other in LC retention time: 11.8 min for the first, 11.4 min for the second.

Going from CCOC(=O)C=CC(=O)NCCC1=CCCCC1 to CCCc1cc(C(N)=O)ccn1, the LC retention time falls from 13.8 min to 7.11 min (1.9-fold).

Cc1nc2ccc(NC(=S)N(C)C)cc2nc1C and Cc1cc(C)c(-c2csc(N)n2)c(C)c1 are the same in LC retention time: 8.82 min for the first, 8.82 min for the second.

NC1CCCCC1 and Oc1ccc2c(c1)C13CCCCC1(O)C(C2O)N(CC1CCC1)CC3 (stereo unspecified) are within 1.5-fold of each other in LC retention time: 7.63 min for the first, 8.68 min for the second.

NCCOc1ccc2ccccc2c1 and NCc1ccccc1CN are within 1.5-fold of each other in LC retention time: 9.22 min for the first, 7.03 min for the second.

First: O=C(C(=O)c1cccs1)c1ccccc1
Second: C[N+](C)(C)CCOC(=O)c1ccccc1
The LC retention time of the first is 1.7-fold higher: 14.4 min for the first, 8.36 min for the second.

CNCCCN1c2ccccc2CCc2ccccc21 and c1coc(-c2c3c(nc4ccc5ccccc5c24)CCCC3)c1 are within 1.5-fold of each other in LC retention time: 11.5 min for the first, 13.8 min for the second.

COc1cccc2c1NC(C)(C)CC2C (stereo unspecified) and Cc1cccc2c1CC(C)(C)NC2=S are within 1.5-fold of each other in LC retention time: 12.3 min for the first, 13.3 min for the second.

Going from Cc1ccc(OCCOCn2c(C)cc(=O)[nH]c2=O)cc1 to COC1=CC(=O)C(=O)C=C1OC, the LC retention time falls from 11 min to 7.13 min (1.5-fold).

Compared with Nc1ncc2[nH]cnc2n1, Nc1c(S(=O)(=O)O)[nH]c(=O)[nH]c1=O is 4.5-fold lower in LC retention time: 5.52 min for the first, 1.22 min for the second.

First: CN1CCCN=C1C=Cc1cccs1
Second: CC(=O)c1ccc(-n2cccc2)cc1
The LC retention time of the first is 1.5-fold lower: 8.55 min for the first, 13.2 min for the second.

Going from OCC(CO)(CO)c1ccccn1 to CC(CCc1ccccc1)NC(=S)Nc1cccnc1 (stereo unspecified), the LC retention time rises from 4.36 min to 11.1 min (2.5-fold).

O=C(Nc1cccc(C2=NCCN2)c1)Nc1cccc(C2=NCCN2)c1 and CNCCN are within 1.5-fold of each other in LC retention time: 7.98 min for the first, 6.51 min for the second.
